Peptide text beside a SMILES is read from it. * marks the point of attachment. Cbz = O=C(OCc1ccccc1)*
molecular target: rSmeCalp1 (recombinant Schistosoma mekongi calpain 1) (Schistosoma mekongi, UniProt A0A5B8WCQ5); test: fluorogenic protease assay (AMC release); type: biochemical
Sequence (A0A5B8WCQ5 entry or part of it): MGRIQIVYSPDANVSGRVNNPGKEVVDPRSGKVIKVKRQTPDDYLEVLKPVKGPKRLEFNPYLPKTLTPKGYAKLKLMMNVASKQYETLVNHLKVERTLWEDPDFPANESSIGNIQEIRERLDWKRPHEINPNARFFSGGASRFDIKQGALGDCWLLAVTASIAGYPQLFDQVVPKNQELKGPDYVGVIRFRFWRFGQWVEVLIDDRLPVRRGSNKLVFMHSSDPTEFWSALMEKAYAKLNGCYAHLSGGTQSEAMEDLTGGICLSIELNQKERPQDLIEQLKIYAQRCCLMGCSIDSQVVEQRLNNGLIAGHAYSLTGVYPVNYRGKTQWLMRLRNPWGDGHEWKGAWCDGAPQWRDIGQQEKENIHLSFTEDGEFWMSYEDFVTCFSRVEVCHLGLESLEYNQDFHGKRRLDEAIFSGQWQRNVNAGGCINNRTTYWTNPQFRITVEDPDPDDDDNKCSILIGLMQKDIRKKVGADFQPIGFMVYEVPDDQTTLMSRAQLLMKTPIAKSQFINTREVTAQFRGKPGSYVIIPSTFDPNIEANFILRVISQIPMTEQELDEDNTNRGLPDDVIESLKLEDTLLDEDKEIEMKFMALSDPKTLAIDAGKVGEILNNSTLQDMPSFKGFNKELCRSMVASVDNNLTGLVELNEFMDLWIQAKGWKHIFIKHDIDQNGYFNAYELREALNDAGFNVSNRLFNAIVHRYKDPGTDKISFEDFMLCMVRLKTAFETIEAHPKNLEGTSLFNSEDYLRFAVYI

SMILES	inhibition at 100 µM
CC(C)CCNC(=O)[C@H](CC(C)C)NC(=O)[C@H]1O[C@@H]1C(=O)O [E64c]	87%
CC(C)C[C@H](NC(=O)[C@@H]1O[C@H]1C(=O)O)C(=O)NCCCCN=C(N)N [E64]	98%
CC(C)[C@H](NC(=O)OCc1ccccc1)C(=O)N[C@H](C=O)Cc1ccccc1 [MDL28170] (Cbz-Val-Phe-aldehyde)	94%
